Test results as given in US20240173314A1, “TREATMENT OF SICKLE CELL ANAEMIA” (ZYDUS LIFESCIENCES LIMITED, priority 2021, published 2024).

What was measured:
ischemia condition = conditions: cited from earlier work
animal model of anaemia = animal model of anaemia (Jain et al., 2019; Joharapurkar et al., 2018); cited from earlier work
[1] = system: PHZ-induced haemolytic anaemia; experiment: Phenylhydrazine (PHZ)-induced haemolytic anaemia in mice; assay type: in vivo, mice (male C57BL/6J); conditions: 15 mg/kg, PO, daily day -1 to day 5; PHZ-treated mice
Method: Male C57BL/6J (6-8 weeks old) were used in the study. Mice were treated with phenylhydrazine (PHZ) on day 0, day 1 and day 3. The PHZ was given by intraperitoneally route at 40 mg/kg on day 0, and 20 mg/kg on day 1 and 3. Vehicle control or compound of formula (Ia) (15 mg/kg, PO) was given daily from day −1 to day 5. At the end of treatment period, whole blood samples were processed for haemoglobin, RBC and haematocrit measurement. The serum samples were analyzed for total iron content. The effect on oxidative and inflammatory markers will be analyzed.

isolated RBCs [2] = experiment: PHZ-induced reactive oxygen species (DCFDA/DCF) in isolated RBCs; assay type: cell-based, C57BL/6J; conditions: PHZ 10 μM, RBC suspension
Method: (§1) The RBC was isolated from healthy male C57BL/6J (6-8 weeks old) into a heparinized tube. The RBC pellet was isolated by centrifugation. The RBC pellet was washed three time with glucose supplemented phosphate buffered saline (PBS). The final RBC pellet was diluted 1:4 with glucose supplemented PBS. The RBC suspension was incubated with compound of formula (Ia) at 0.05, 0.5 and 5 μM concentration for 30 min at 37° C. Then the phenylhydrazine (10 μM) was added to all groups and incubated for further 30 min at 37° C. After that 2,7-Dichlorofluorescin-diacetate (DCFDA, 400 μM) was added to the RBC suspension and incubated for 30 min at 37° C. After incubation, the RBC suspension was washed two times with glucose-PBS, and RBC were lysed with 200 μL of ice-cold 0.1% Triton X100 and then incubated for 30 min in darkness at room temperature. After 30 min incubation, the fluorescence of all samples was read (excitation wavelength: 485 nm and emission wavelength: 538 nm). The concentration of 2,7-Dichlorofluorescin (DCF) was calculated from the DCF standard curve. For thiobarbituric acid reactive substances (TBARS) measurement, RBC lysate was used and malondialdehyde was measured using thiobarbituric acid method (Patel V et al., 2018).

isolated RBCs [3] = experiment: TBARS (malondialdehyde, thiobarbituric acid method) in RBC lysate after PHZ; assay type: cell-based, C57BL/6J; conditions: PHZ 10 μM
Method: as §1

[4] = system: erythroid progenitor cells in bone marrow of anemic rats; experiment: Erythroid progenitor cells in bone marrow of cisplatin/turpentine oil anemic rats; assay type: in vivo; conditions: 15 mg/kg, PO, alternate day, two weeks
Method: The anaemia was induced by cisplatin (5 mg/kg, IP, single dose) and turpentine oil (5 mL/kg, SC, twice a week) administration for four weeks. The compound of formula (Ia) (15 mg/kg, PO, alternate day) treatment was initiated after two weeks of cisplatin/turpentine oil administration. After two weeks of compound of formula (Ia) treatment, animals were euthanized and bone marrow was isolated. Bone marrow smear was prepared and stain with May-Grunwald stain and Giemsa stain. The ratio of erythroid progenitor cell: total cells were expressed as percentage.

[5] = ischemia condition (Joharapurkar et al., 2021)
[6] = oxidative stress (Joharapurkar et al., 2021)

Row | SMILES | IL-1β levels (ischemia condition; [5]) | IL-6 levels (ischemia condition; [5]) | malondialdehyde (MDA) (ischemia condition; [6]) | superoxide dismutase (SOD) (ischemia condition; [6]) | HIF stabilization (animal model of anaemia) | erythropoiesis (animal model of anaemia) | decrease in serum iron levels [1] [%] | increase in HCT level compared with PHZ control [1] [%] | increase in RBC level compared with PHZ control [1] [%] | increase in hemoglobin level compared with PHZ control [1] [%] | decrease of ROS (DCF concentration) compared with vehicle control (isolated RBCs [2]; 0.05 μM) [%] | decrease of ROS (DCF concentration) compared with vehicle control (isolated RBCs [2]; 0.5 μM) [%] | decrease of ROS (DCF concentration) compared with vehicle control (isolated RBCs [2]; 5 μM) [%] | decrease of TBARS levels compared with vehicle control (isolated RBCs [3]; 0.05 μM) [%] | decrease of TBARS levels compared with vehicle control (isolated RBCs [3]; 0.5 μM) [%] | decrease of TBARS levels compared with vehicle control (isolated RBCs [3]; 5 μM) [%] | increase in % erythroid progenitor cells compared with vehicle control [4] [fold]
1 | O=C(O)CNC(=O)c1c(O)c2ccccc2n(OCC2CC2)c1=O [Desidustat] | reduced | reduced | decreases | decreases | stabilizes HIF | induces erythropoiesis |  |  |  |  |  |  |  |  |  |  | 
2 | O=C(O)CNC(=O)c1c(O)c2ccccc2n(OCC2CC2)c1=O [compound of formula (Ia)] |  |  |  |  |  |  | 26.0±7.6 | 37.7±5.7 | 44.2±10.4 | 36.4±6.2 | 9.6±8.9 | 25.5±3.8 | 35.1±1.7 | 5.5±4.0 | 21.8±4.0 | 27.3±4.0 | 2.2±0.5
